What is called IC50 is the midpoint of a concentration-inhibition curve.

The source of these data is patent publication US6271342A, “Sugar-modified cytostatics” (Bayer Aktiengesellschaft, priority 1995, dated 2001).

Data set [1] concerns B16F10 tumour. Kind of data set: In vivo test, survival of mice with transplanted B16F10 tumour. The following applies: treated daily. Details: species or system mouse. On the procedure:
Mice are inoculated with 5×10^6 B16F10 tumour cells on day 0. The animals in which tumour cells are transplanted develop solid peritoneal tumours and are then treated daily with test substances or with the vehicle control. In the control group, 50% of the animals usually die between day 14 and 20. The test substances are administered in buffer or an organic solvent system comprising 20% methanol and 20% dimethyl sulphoxide in 0.7% sodium chloride solution.
The therapeutic result arises from the prolonging of the survival time of the treated animals. […] A therapeutic index can be estimated from the tolerance and prolonging of the survival time.

In data set [2] the test system is HT 29. Description: Growth inhibition test (MTT) for cytotoxic properties. The format is cell-based, human. The essentials:
(§1)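 SW 480 and HT 29 cells in RPMI 1640 with 10% FCS were seeded at 50,000 cells/ml, grown 1 day at 37 °C, then exposed to compound added in DMSO. MTT (5 mg/ml stock) was applied after day 3 and day 6 for 5 h, and formazan absorbance was read at 540 nm. IC50 values reported.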

In data set [3] the test system is SW 480. The data set is described as above. The format is cell-based, human. The essentials: as §1
The nature of data set [4]: Acute toxicity, single administration. It counts as in vivo, nu/nu naked mice. The note with it: for acute toxicity detected: dose of 400 mg/kg; for acute toxicity detected / individual dose of the substances which can be tolerated: single administration; for Individual dose tolerated in mg/kg of mouse, i.v.: single administration i.v., aqueous solution; for Individual dose tolerated in mg/kg of mouse, i.p.: single administration i.p., solution in dimethyl sulphoxide. How it is done:
Determination of the Acute Toxicity of Glycoconjugates of Batracyline (Single Administration)
The acute toxicity of the batracyline derivatives was determined on nu/nu naked mice.
The substances administered i.v., as aqueous solutions, and the substances administered i.p., as solutions in dimethyl sulphoxide, were injected once in concentrations of up to 400 mg of substance per kg of mouse.
The individual dose tolerated was calculated from the decrease in the weight of the animals up to 21 days after administration and from the number of animals surviving.

A short description of data set [5]: Cleavage kinetics with human blood (HPLC). The following applies: Table 2a; 37° C.; * = cleavage product is N-[D-alanyl]-batracyline. The format is in vitro ADME. An excerpt:
In Vitro Investigation of the Cleavability of the Glycoconjugates
Cleavage Kinetics With Human Blood

For data set [6], the system named is SW-480.
Method: Cleavage Kinetics With Cells
(§2) 2.25 ml of PBS are incubated together with 225 μl of a cell suspension (30 mg/ml) and 25 μl of substrate stock solution (1 mg/ml in 3% dimethyl sulphoxide in PBS) at 37° C. After 1 hour and 24 hours, samples of in each case 1 ml are taken, mixed with 1 ml of ethanol and left to stand at 4° C. for 20 minutes. After centrifugation (5 minutes at 3500 rpm), 100 μl of supernatant are taken for the HPLC analysis.
The test system of data set [7] is hepatoma.
Method: Cleavage Kinetics With Cells
as §2
The test system of data set [8] is B 16 F 10. Kind of data set: Growth inhibition test (MTT) for cytotoxic properties. The format is cell-based, mouse. The note with it: Table 1b. On the procedure:
Growth Inhibition Test for Determination of the Cytotoxic Properties of Glycoconjugates of Batracyline and of Quinolone-a
The human colon cell lines SW 480 and HT 29 (ATCC no. CCL 228 and HBT-38) and the mouse melanoma cell line B 16 F 10 were cultured in Roux dishes in RPMI 1640 medium with addition of 10% FCS. The cultures were then trypsinized and taken up in RPMI plus 10% FCS to a cell count of 50,000 cells/ml. 100 μl of cell suspension/well were introduced into a 96 microwell plate and incubated for 1 day at 37° C. in a CO2 incubating cabinet. A further 100 μl of RPMI medium and 1 μl of dimethyl sulphoxide with the test substances were then added. The growth was checked after day 3 and day 6. 40 μl of MTT solution (3-(4,5-dimethylthiazol-2-yl)-2,5-diphenyltetrazoline bromide) with an initial concentration of 5 mg/ml of H2 O were added to each microwave. The plate was incubated for 5 hours in a CO2 incubating cabinet at 37° C. The medium was then sucked off and 100 μl of i-propanol/well were added. After shaking for 30 minutes with 100 μl of H2 O, the extinction was measured at 540 nm with a Titertek Multiskan MCC/340 (Flow).

[9] abbreviates: Table 1a, glycoconjugates of batracyline.

Where a name gives a salt, the structure may show the parent alone. Bounds are passed on as bounds.

Take `COc1cc([C@@H]2c3cc4c(cc3[C@@H](O[C@@H]3O[C@@H]5CO[C@@H](C)O[C@H]5[C@H](O)[C@H]3O)[C@H]3COC(=O)[C@H]23)OCO4)cc(OC)c1O` [Etoposide, reference compound]: in data set [1] (5 mg/kg), the “% survivors Day 0” value came to 100%, the “% survivors Day 20” value turned out to be 90%, the “% survivors Day 25” value is reported as 80% and the “% survivors Day 30” value is reported as 80%. In data set [1] (5 mg/kg), the “% survivors Day 35” value was 70%.

With `CC(NC(=O)C(N)CCCCNC(=S)Nc1ccc(OC2OC(CO)C(O)C(OCC(=O)[O-])C2O)cc1)C(=O)Nc1ccc2c(c1)CN1C(=O)c3ccccc3C1=N2.[Na+]` [Example 3.33, N-{N^ε -[O-(3-O-Carboxymethyl-β-D-galactopyranosyl)-4-hydroxy-phenylamino-thiocarbonyl]-lysyl-D-alanyl}-batracyline, sodium salt], the IC50 in data set [2] (setting [9]) stood at 70 µM. The compound further displayed an IC50 in data set [3] (setting [9]) of 90 µM. In addition, in data set [4], the acute toxicity detected entry is “no acute toxicity”; the “individual dose of the substances which can be tolerated” value is on record as “more than 200 mg of substance per kg of mouse”; the “Individual dose tolerated in mg/kg of mouse, i.v.” value (“Individual dose tolerated … i.v.” below) is listed as > 400 mg/kg of mouse.

In turn, `CC(NC(=O)C(CCCCNC(=S)Nc1ccc(OC2OC(CO)C(O)C(OCC(=O)[O-])C2O)cc1)NC(=S)Nc1ccc(OC2OC(CO)C(O)C(OCC(=O)[O-])C2O)cc1)C(=O)Nc1ccc2nc3n(c(=O)c2c1)Cc1ccccc1-3.[Na+].[Na+]` [Example 6.81, N-{N^α,N^ε -Bis-[O-(3-O-carboxymethyl-β-D-galactopyranosyl)-4hydroxy-phenylamino-thiocarbonyl]-lysyl-D-alanyl}-batracyline, di-sodium salt] yielded an IC50 in data set [2] (setting [9]) of 30 µM. Also, in data set [3] (setting [9]), inhibition was half-maximal at 30 µM (IC50). Moreover, in data set [4], the acute toxicity detected entry is reported as “no acute toxicity”; the “individual dose of the substances which can be tolerated” value is recorded as “more than 200 mg of substance per kg of mouse”; the “Individual dose tolerated … i.v.” value is reported as > 400 mg/kg of mouse.

Take `CC(NC(=O)C(CO)NC(=S)Nc1ccc(OC2OC(C)C(O)C(O)C2O)cc1)C(=O)Nc1ccc2c(c1)Cn1c-2nc2ccccc2c1=O` [Example 7.3, N-{N-[O-(β-L-Fucosyl)-4-hydroxy-phenylamino-thiocarbonyl]-seryl-D-alanyl]-batracyline]: in data set [5], the “% cleavage in human blood 1 hour” value is reported as 0% and the “% cleavage in human blood 24 hours” value was 0%. The same compound gave an IC50 in data set [3] (setting [9]) of 50 µM. In data set [6], the “% cleavage in SW-480 1 hour” value was 0% and the “% cleavage in SW-480 24 hours” value is given as 0%. In data set [7], the “% cleavage in hepatoma 1 hour” value amounted to 0% and the “% cleavage in hepatoma 24 hours” value is on record as 0%.

As for `CO[C@H]1[C@H](O)[C@@H](Oc2ccc(Nc3nc(NCCO)nc(NCCCC[C@H](N)C(=O)N[C@H](C)C(=O)Nc4ccc5c(=O)n6c(nc5c4)-c4ccccc4C6)n3)cc2)O[C@@H](C)[C@H]1O.O=C(O)C(F)(F)F` [Example 8.2, N-{N^ε -[4-Hydroxyethylamino-2-[O-(3-O-methyl-β-L-fucosyl)-4-hydroxy-phenylamino]-triazin-6-yl]-lysyl-D-alanyl}-batracyline, trifluoroacetate], in data set [4], the “individual dose of the substances which can be tolerated” value is reported as “more than 200 mg of substance per kg of mouse” and the “Individual dose tolerated in mg/kg of mouse, i.p.” value (from here on “Individual dose tolerated … i.p.”) is listed as > 200 mg/kg of mouse.

On to `CO[C@H]1[C@H](O)[C@@H](Oc2ccc(NC(=S)NCCCC[C@@H](NC(=S)Nc3ccc(O[C@H]4O[C@@H](C)[C@@H](O)[C@@H](OC)[C@@H]4O)cc3)C(=O)NC3C=CCC4CN(c5c(F)cc6c(=O)c(C(=O)[O-])cn(C7CC7)c6c5Cl)CC43)cc2)O[C@@H](C)[C@H]1O.[Na+]` (stereo partly drawn) [Example 11.12, N-{N^α,N^ε -Bis-[O-(3-O-methyl-β-L-fucosyl)-4-hydroxy-phenylamino-thiocarbonyl]-D-lysyl}-quinolone-a, sodium salt], for which, in data set [1] (1 mg/kg), the “% survivors Day 0” value came to 100%, the “% survivors Day 20” value came to 90%, the “% survivors Day 25” value is listed as 60% and the “% survivors Day 30” value was 30%. Also, the “% survivors Day 35” value in data set [1] (1 mg/kg) worked out at 30%. In data set [1] (100 mg/kg), the “% survivors Day 0” value turned out to be 100%, the “% survivors Day 20” value is listed as 100%, the “% survivors Day 25” value was determined as 100% and the “% survivors Day 30” value stood at 90%. For the same compound, in data set [1] (100 mg/kg), the “% survivors Day 35” value worked out at 90%.

Regarding `CCC1(OC(=O)C(C)NC(=O)C(CCCCN)NC(=S)Nc2ccc(OC3OC(C)C(O)C(OCC(=O)O)C3O)cc2)C(=O)OCc2c1cc1n(c2=O)Cc2cc3ccccc3nc2-1` (stereo not drawn) [Example 18.2, 20-O-{N^α -[O-(3-O-Carboxymethyl-β-fucopyranosyl)-4hydroxy-phenylamino-thiocarbonyl]-lysyl-alanyl}-camptothecin], the IC50 was found to be 0.2 µM in data set [8], 0.02 µM in data set [2] (Table 1b) and 0.02 µM in data set [3] (Table 1b).

As for `CCC1(OC(=O)C(C)NC(=O)C(CCCCNC(=S)Nc2ccc(OC3OC(C)C(O)C(OC)C3O)cc2)NC(=S)Nc2ccc(OC3OC(C)C(O)C(OC)C3O)cc2)C(=O)OCc2c1cc1n(c2=O)Cc2cc3ccccc3nc2-1` [Example 18.4, 20-O-{N^α,N^ε -Bis-[O-(3-O-methyl-β-L-fucopyranosyl)-4-hydroxy-phenylamino-thiocarbonyl]-lysyl-D-alanyl}-camptothecin], the IC50 in data set [8] was determined as 0.3 µM; in data set [2] (Table 1b) it was 0.02 µM; in data set [3] (Table 1b), 0.02 µM.

Turning to `CCC1(OC(=O)C(NC(=O)C(CCCCNC(=S)Nc2ccc(OC3OC(C)C(O)C(OC)C3O)cc2)NC(=S)Nc2ccc(OC3OC(C)C(O)C(OC)C3O)cc2)C(C)C)C(=O)OCc2c1cc1n(c2=O)Cc2cc3ccccc3nc2-1` [Example 18.5, 20-O-{N^α,N^ε -Bis-[O-(3-O-methyl-β-L-fucopyranosyl)-4-hydroxy-phenylamino-thiocarbonyl]-lysyl-valinyl}-camptothecin], the IC50 in data set [8] was found to be 1 µM; in data set [2] (Table 1b), 0.2 µM; in data set [3] (Table 1b), 0.2 µM.

Regarding `CCC1(OC(=O)[C@@H](NC(=O)[C@H](CCCCN)NC(=S)Nc2ccc(O[C@H]3O[C@@H](C)[C@@H](O)[C@@H](OCC(=O)O)[C@@H]3O)cc2)C(C)C)C(=O)OCc2c1cc1n(c2=O)Cc2cc3ccccc3nc2-1` (stereo partly drawn) [Example 18.9, 20-O-{N^α [O-(3-O-Carboxymethyl-β-L-fucopyranosyl)-4-hydroxy-phenylamino-thiocarbonyl]-lysyl-valinyl}-camptothecin, hydrochloride], the IC50 was found to be 0.7 µM in data set [8], 0.06 µM in data set [2] (Table 1b) and 0.08 µM in data set [3] (Table 1b).

As to `CC[C@@]1(OC(=O)[C@H](C)NC(=O)[C@H](CCCCN)NC(=S)Nc2ccc(O[C@H]3O[C@@H](C)[C@@H](O)[C@@H](OC)[C@@H]3O)cc2)C(=O)OCc2c1cc1n(c2=O)Cc2cc3ccccc3nc2-1` [Example 18.14, 20-O-{N^α -[O-(3-O-Methyl-β-L-fucopyranosyl)-4-hydroxy-phenylamino-thiocarbonyl]-lysyl-alanyl}-camptothecin, hydrochloride], the IC50 in data set [8] turned out to be 0.08 µM; in data set [2] (Table 1b), 0.01 µM; in data set [3] (Table 1b), 0.015 µM.

On to “N-[Lysyl-D-alanyl]-batracyline, di-trifluoroacetate [Example 2.13]”, for which, in data set [4], the “Individual dose tolerated … i.p.” value is recorded as 50 mg/kg of mouse and the “Individual dose tolerated … i.v.” value is on record as 25 mg/kg of mouse.

Take “N-{N^α,N^ε -Bis-[O-(β-L-fucosyl)-4-hydroxy-phenylamino-thiocarbonyl]-lysyl-D-ala nyl}-batracyline [Example 6.14]”: in data set [4], the acute toxicity detected result is listed as “no acute toxicity”; the “individual dose of the substances which can be tolerated” value is recorded as “more than 200 mg of substance per kg of mouse”; the “Individual dose tolerated … i.p.” value is reported as > 400 mg/kg of mouse.

Take “N-{N^ε -[O-(3,4-Di-O-methyl-β-D-galactopyranosyl)-4-hydroxy-phenylamino-thio carbonyl]-lysyl-D-alanyl}-batracyline, trifluoroacetate [Example 3.16]”: in data set [4], the “individual dose of the substances which can be tolerated” value was “more than 200 mg of substance per kg of mouse” and the “Individual dose tolerated … i.p.” value is reported as > 200 mg/kg of mouse.
